pIC50: −log10 of the molar value.
How the values were obtained:
[1] = Cytotoxicity (CC50) in LM cells, MTT assay; format: cell-based; details: mouse, LM cells (mouse fibroblasts); 50% cytotoxic concentration
Protocol: (§1) First, the addition of recombinant TNF to mouse fibroblast LM cells induces cell death, and thus, by using the same, the TNF-neutralization bioassay was constructed. In other words, LM cells were pretreated with TNF (20 ng/ml) and the compounds synthesized in the above examples at various concentrations (5×10^4 cells/well), and a sensitizer actinomycin D ([…]) was added, and cultured in a CO2 incubator for 24 hours, and then the MTT assay was carried out. At this time, 10 μl of MTT (5 mg/ml stock) was added, reacted for 4 hours, and then dissolved in DMSO to measure the absorbance at 570 nm. First, the TNF cell death inhibition/neutralization action of TNF-target expected compounds at single concentration (50 or 10 μM) was measured. Second, IC50 values were determined by treating with the compounds having an excellent effect at different concentrations. The % inhibition of TNF was calculated using the following formula: % inhibition of TNF=(OD value of a group treated with TNF and compound−OD value of TNF treated group/(OD value of TNF untreated group−OD value of TNF treated group)×100.
(§2) IC50 values were statistically analyzed using Prism 6 (GraphPad) (IC50: 50% inhibitory concentration, CC50: 50% cytotoxic concentration).

TNF = TNF (Homo sapiens, UniProt P01375); test: TNF-neutralization bioassay: TNF-induced cell death of LM cells (MTT); format: cell-based; details: for inhibition at 50 µM: compound 50 μM, TNF 20 ng/ml, actinomycin D, LM cells, 24 hours; for pIC50: inhibition of TNF-induced LM cell death
Chain of TNF (P01375 77-233 limits assumed): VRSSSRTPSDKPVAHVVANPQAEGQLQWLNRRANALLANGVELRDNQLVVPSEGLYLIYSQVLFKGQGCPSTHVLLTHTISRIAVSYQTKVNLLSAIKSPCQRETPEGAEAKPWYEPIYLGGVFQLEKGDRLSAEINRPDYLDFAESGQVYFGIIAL
Protocol: as §1, §2

With O=C(O)c1c(-c2cccc(F)c2)oc2ccccc2c1=O [Example 16, 2-(3-fluorophenyl)-3-carboxy-(4H)-4-benzopyranone] the CC50 at 24 h [1] was > 50 µM, the melting point was 193 to 196 °C and the inhibition at 50 µM (TNF) was 70.2%. For the same compound, the pIC50 (TNF) was 4.77.
In the case of O=C(O)c1c(-c2cc(F)cc(F)c2)oc2ccccc2c1=O [Example 17, 2-(3,5-difluorophenyl)-3-carboxy-(4H)-4-benzopyranone], the CC50 at 24 h [1] was > 50 µM, the melting point was 208 to 209 °C and the inhibition at 50 µM (TNF) was 71%. It also gave a pIC50 (TNF) of 5.60.
For O=C(O)c1c(-c2ccco2)oc2ccc(Cl)cc2c1=O [Example 23, 2-(2-furanyl)-3-carboxy-6-chloro-(4H)-4-benzopyranone], the CC50 at 24 h [1] was > 50 µM, the melting point was 196 to 198 °C and the inhibition at 50 µM (TNF) was 70.1%. It also gave a pIC50 (TNF) of 5.57.
In the case of O=C(O)c1c(-c2ccco2)oc2ccc(Br)cc2c1=O [Example 24, 2-(2-furanyl)-3-carboxy-6-bromo-(4H)-4-benzopyranone], the CC50 at 24 h [1] was > 50 µM, the melting point was 209 to 211 °C and the inhibition at 50 µM (TNF) was 76.3%. For the same compound, the pIC50 (TNF) was 5.60.
With COc1ccc(-c2oc3ccc(Br)cc3c(=O)c2C(=O)O)cc1OC [Example 40, 2-(3,4-dimethoxyphenyl)-3-carboxy-6-bromo-(4H)-4-benzopyranone] the CC50 at 24 h [1] was > 50 µM, the melting point was 242 to 243 °C and the inhibition at 50 µM (TNF) was 100%. The pIC50 (TNF) was 3.91.
With O=C(O)c1c(-c2cccc(F)c2)oc2cc(Cl)ccc2c1=O [Example 44, 2-(3-fluorophenyl)-3-carboxy-7-chloro-(4H)-4-benzopyranone] the CC50 at 24 h [1] was > 50 µM, the melting point was 160 to 163 °C and the inhibition at 50 µM (TNF) was 93.2%. For the same compound, the pIC50 (TNF) was 4.34.
For O=C(O)c1c(-c2cccc(F)c2)oc2ccc(Cl)cc2c1=O [Example 45, 2-(3-fluorophenyl)-3-carboxy-6-chloro-(4H)-4-benzopyranone], the CC50 at 24 h [1] was 42 µM, the melting point was 216 to 217 °C and the inhibition at 50 µM (TNF) was 88.4%. The pIC50 (TNF) was 4.73.
For O=C(O)c1c(-c2cccc(F)c2)oc2ccc(Br)cc2c1=O [Example 46, 2-(3-fluorophenyl)-3-carboxy-6-bromo-(4H)-4-benzopyranone], the CC50 at 24 h [1] was > 50 µM, the melting point was 222 to 223 °C and the inhibition at 50 µM (TNF) was 100%. For the same compound, the pIC50 (TNF) was 4.54.
In the case of Cc1ccc2oc(-c3cc(F)cc(F)c3)c(C(=O)O)c(=O)c2c1 [Example 49, 2-(3,5-difluorophenyl)-3-carboxy-6-methyl-(4H)-4-benzopyranone], the melting point was 238 to 240 °C and the inhibition at 50 µM (TNF) was 37.7%.
With O=C(O)c1c(-c2cc(F)cc(F)c2)oc2ccc(Cl)cc2c1=O [Example 50, 2-(3,5-difluorophenyl)-3-carboxy-6-chloro-(4H)-4-benzopyranone] the CC50 at 24 h [1] was 36 µM, the melting point was 207 to 209 °C and the inhibition at 50 µM (TNF) was 100%. It also gave a pIC50 (TNF) of 5.29.
Compound Cc1cccc2c(=O)c(C(=O)O)c(-c3cccc(F)c3F)oc12 [Example 52, 2-(2,3-difluorophenyl)-3-carboxy-8-methyl-(4H)-4-benzopyranone] has a melting point of 167 to 169 °C and an inhibition at 50 µM (TNF) of 18.5%.
Cc1ccc2c(=O)c(C(=O)O)c(-c3cccc(F)c3F)oc2c1 [Example 53, 2-(2,3-difluorophenyl)-3-carboxy-7-methyl-(4H)-4-benzopyranone] showed a melting point of 155 to 156 °C and an inhibition at 50 µM (TNF) of 22.8%.
Cc1ccc2oc(-c3cccc(F)c3F)c(C(=O)O)c(=O)c2c1 [Example 54, 2-(2,3-difluorophenyl)-3-carboxy-6-methyl-(4H)-4-benzopyranone] showed a melting point of 120 to 122 °C and an inhibition at 50 µM (TNF) of 26.5%.
With O=C(O)c1c(-c2cccc(F)c2F)oc2cc(Cl)ccc2c1=O [Example 55, 2-(2,3-difluorophenyl)-3-carboxy-7-chloro-(4H)-4-benzopyranone] the CC50 at 24 h [1] was 25 µM, the melting point was ≥ 220 °C and the inhibition at 50 µM (TNF) was 100%. The pIC50 (TNF) was 4.47.
With O=C(O)c1c(-c2cccc(F)c2F)oc2ccc(Cl)cc2c1=O [Example 56, 2-(2,3-difluorophenyl)-3-carboxy-6-chloro-(4H)-4-benzopyranone] the CC50 at 24 h [1] was 49 µM, the melting point was ≥ 120 °C and the inhibition at 50 µM (TNF) was 100%. For the same compound, the pIC50 (TNF) was 4.79.
With O=C(O)c1c(-c2cccc(F)c2F)oc2ccc(Br)cc2c1=O [Example 57, 2-(2,3-difluorophenyl)-3-carboxy-6-bromo-(4H)-4-benzopyranone] the CC50 at 24 h [1] was 47 µM, the melting point was ≥ 120 °C and the inhibition at 50 µM (TNF) was 100%. The pIC50 (TNF) was 4.99.
Cc1cccc2c(=O)c(C(=O)O)c(-c3cc(F)ccc3F)oc12 [Example 58, 2-(2,5-difluorophenyl)-3-carboxy-8-methyl-(4H)-4-benzopyranone] gave a melting point of 170 to 172 °C and an inhibition at 50 µM (TNF) of 33.8%.
In the case of Cc1ccc2c(=O)c(C(=O)O)c(-c3cc(F)ccc3F)oc2c1 [Example 59, 2-(2,5-difluorophenyl)-3-carboxy-7-methyl-(4H)-4-benzopyranone], the melting point was 156 to 158 °C and the inhibition at 50 µM (TNF) was 32.3%.
For Cc1ccc2oc(-c3cc(F)ccc3F)c(C(=O)O)c(=O)c2c1 [Example 60, 2-(2,5-difluorophenyl)-3-carboxy-6-methyl-(4H)-4-benzopyranone], the melting point was ≥ 120 °C and the inhibition at 50 µM (TNF) was 28.1%.
O=C(O)c1c(-c2cc(F)ccc2F)oc2ccc(Cl)cc2c1=O [Example 62, 2-(2,5-difluorophenyl)-3-carboxy-6-chloro-(4H)-4-benzopyranone] showed a CC50 at 24 h [1] of 17 µM, a melting point of 168 to 170 °C and an inhibition at 50 µM (TNF) of 100%. For the same compound, the pIC50 (TNF) was 5.42.
Compound O=C(O)c1c(-c2cc(F)ccc2F)oc2ccc(Br)cc2c1=O [Example 63, 2-(2,5-difluorophenyl)-3-carboxy-6-bromo-(4H)-4-benzopyranone] has a CC50 at 24 h [1] of 36 µM, a melting point of 152 to 153 °C and an inhibition at 50 µM (TNF) of 100%. It also gave a pIC50 (TNF) of 4.43.
Cc1cccc2c(=O)c(C(=O)O)c(-c3ccc(F)c(F)c3)oc12 [Example 64, 2-(3,4-difluorophenyl)-3-carboxy-8-methyl-(4H)-4-benzopyranone] gave a melting point of 203 to 204 °C and an inhibition at 50 µM (TNF) of 47.2%.
With Cc1ccc2c(=O)c(C(=O)O)c(-c3ccc(F)c(F)c3)oc2c1 [Example 65, 2-(3,4-difluorophenyl)-3-carboxy-7-methyl-(4H)-4-benzopyranone] the melting point was 202 to 204 °C and the inhibition at 50 µM (TNF) was 25.1%.
With Cc1ccc2oc(-c3ccc(F)c(F)c3)c(C(=O)O)c(=O)c2c1 [Example 66, 2-(3,4-difluorophenyl)-3-carboxy-6-methyl-(4H)-4-benzopyranone] the melting point was 222 to 223 °C and the inhibition at 50 µM (TNF) was 37%.
For O=C(O)c1c(-c2ccc(F)c(F)c2)oc2ccc(Cl)cc2c1=O [Example 67, 2-(3,4-difluorophenyl)-3-carboxy-6-chloro-(4H)-4-benzopyranone], the CC50 at 24 h [1] was 21 µM, the melting point was 195 to 198 °C and the inhibition at 50 µM (TNF) was 100%. For the same compound, the pIC50 (TNF) was 5.41.
For Cc1cccc2c(=O)c(C(=O)O)c(-c3ccc(Cl)cc3)oc12 [Example 68, 2-(4-chlorophenyl)-3-carboxy-8-methyl-(4H)-4-benzopyranone], the melting point was 217 to 219 °C and the inhibition at 50 µM (TNF) was 15.8%.
Cc1ccc2c(=O)c(C(=O)O)c(-c3ccc(Cl)cc3)oc2c1 [Example 69, 2-(4-chlorophenyl)-3-carboxy-7-methyl-(4H)-4-benzopyranone] gave a melting point of 220 to 222 °C and an inhibition at 50 µM (TNF) of 14.6%.
With Cc1ccc2oc(-c3ccc(Cl)cc3)c(C(=O)O)c(=O)c2c1 [Example 70, 2-(4-chlorophenyl)-3-carboxy-6-methyl-(4H)-4-benzopyranone] the melting point was 212 to 227 °C and the inhibition at 50 µM (TNF) was 28.9%.
With O=C(O)c1c(-c2ccc(Cl)cc2)oc2ccc(Cl)cc2c1=O [Example 71, 2-(4-chlorophenyl)-3-carboxy-6-chloro-(4H)-4-benzopyranone] the CC50 at 24 h [1] was 36 µM, the melting point was 227 to 228 °C and the inhibition at 50 µM (TNF) was 97.9%. It also gave a pIC50 (TNF) of 5.48.
With O=C(O)c1c(-c2ccc(Cl)cc2)oc2ccc(Br)cc2c1=O [Example 72, 2-(4-chlorophenyl)-3-carboxy-6-bromo-(4H)-4-benzopyranone] the CC50 at 24 h [1] was > 50 µM, the melting point was 211 to 213 °C and the inhibition at 50 µM (TNF) was 100%. The pIC50 (TNF) was 4.68.
O=C(O)c1c(-c2ccc(Cl)cc2)oc2ccccc2c1=O [Example 73, 2-(4-chlorophenyl)-3-carboxy-(4H)-4-benzopyranone] gave a melting point of 212 to 213 °C and an inhibition at 50 µM (TNF) of 42%.
In the case of COc1cccc2c(=O)c(C(=O)O)c(-c3ccc(Cl)cc3)oc12 [Example 74, 2-(4-chlorophenyl)-3-carboxy-8-methoxy-(4H)-4-benzopyranone], the CC50 at 24 h [1] was > 50 µM, the melting point was 238 to 239 °C and the inhibition at 50 µM (TNF) was 79%. The pIC50 (TNF) was 4.28.

Reference: patent US11504349B2, “Composition for preventing or treating TNF-related diseases, containing novel derivative as active ingredient, and method for inhibiting TNF activity by using same” (ILAB, priority 2017, dated 2022)
